Measurements from US20260176262A1, “KRAS INHIBITORS, PREPARATION METHOD THEREFOR, AND PHARMACEUTICAL USE THEREOF” (ABBISKO THERAPEUTICS CO., LTD., priority 2021, published 2026).
Read-outs that look alike come from different tables or passages of the source.

Tests used:
KRAS^G12D/cRAF = KRAS^G12D/cRAF (Homo sapiens, UniProt P01116, G12D); assay: KRAS G12D/cRAF binding test (Alphalisa); details: His-tagged KRAS G12D + GMPPNP, GST-tagged cRAF
Protocol: The compound was dissolved in 100% DMSO at a starting concentration of 5 mM and diluted in DMSO with a 3-fold serial dilution method for a total of 8 concentration points. 1 μL of the compound or DMSO at each concentration point was added into 99 μL of the experimental buffer to obtain 10× stock solution.
• 1) 4 μL of the working mixture solution of His-tagged KRAS^G12D and GMPPNP was added to the 384-well plate. • 2) The 10× compound stock solution or 1% DMSO was added to the 384-well plate. • 3) The plate was centrifuged at 1000 rpm for 1 minute. • 4) 4 μL of GST-tagged cRAF solution was added to the 384-well plate. • 5) The plate was centrifuged at 1000 rpm for 1 minute. • 6) The plate was incubated at room temperature for 15 minutes. • 7) 10 μL of detection working solution was added to the 384-well plate. • 8) The plate was centrifuged at 1000 rpm for 1 minute. • 9) The plate was incubated at room temperature for 60 minutes. • 10) The 384-well plate was placed into Envision and assay data was obtained.
(§1) The ratio for each compound concentration was calculated from the signal of the DMSO control group contained in each assay plate and the Alphalisa signal in each compound well. The compound concentration required for inhibitory concentration at 50% (IC50) was determined using a four-parameter logarithmic dose-response equation by testing the concentration of the compound and the value of the ratio. The endpoint value (IC50) of the reference compound was assessed in each experiment as a quality control measure. If the endpoint value is within three times the expected value, the experiment may be considered acceptable.

AGS cell = assay: Anti-proliferative 2D CTG assay, AGS cells; type: cell-based; details: AGS cells, incubated 3 days, CTG, read-out: AGS cell IC50
Protocol: When the cell confluence was about 80%, the cells were isolated with 0.25% trypsin. Isolated cells were resuspended in 5 mL fresh cell culture medium and centrifuged for cell collection. Meanwhile, the number of cells was also calculated. The cells were then suspended in culture medium of medium concentration. The cells were placed into a 96-well plate with 1000 cells/well for AGS and 1000 cells/well for GP2D. The 96-well plate was placed in an incubator at 37° C. and incubated overnight.
1.2 Day 1 Compound Treatment From the 10 mM stock solution, with a ratio of 1:5, 10-point serial dilutions were performed. The 10× medium containing the compound was transferred into corresponding wells of the 96 wells. The final maximum compound concentration was […] and the final DMSO concentration was 0.1%. The 96-well plate was placed in a 37° C. incubator, the AGS cells were incubated for 3 days, and the GP2D cells were incubated for 4 days.
50 μL/well of detection reagent (CTG) was added to the AGS cells, and the signal was read in an Envision machine.
as §1, with “The percent inhibition (%) at” for “The ratio for”, “signal in” for “signal of”, “the HPE and ZPE” for “the DMSO”, “control wells and the fluorescence signal in the individual compound wells included” for “control group contained”, “assay plate. […]” for “assay plate and the Alphalisa signal in each compound well.”, “the inhibition percentage value.” for “the value of the ratio.”

[1] = Homo sapiens, 72 h, class symbols
[2] = Homo sapiens, 72 h, numeric values

Sequence of KRAS^G12D/cRAF (P01116 1-188 isoform P01116-2 G12D): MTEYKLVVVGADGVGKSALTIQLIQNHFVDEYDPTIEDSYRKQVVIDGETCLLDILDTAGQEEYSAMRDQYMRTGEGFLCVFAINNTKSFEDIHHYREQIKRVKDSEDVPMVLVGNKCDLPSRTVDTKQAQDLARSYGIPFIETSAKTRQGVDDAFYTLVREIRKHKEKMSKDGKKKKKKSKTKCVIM

Compound	IC50 (KRAS^G12D/cRAF; class symbols) [µM]	IC50 (AGS cell; [1]) [µM]	IC50 (KRAS^G12D/cRAF; numeric values) [µM]	IC50 (AGS cell; [2]) [µM]	IC50 (AGS cell; numeric values) [µM]
C#Cc1c(F)ccc2cc(O)cc(-c3ncc4c(N5C[C@@H]6CC[C@](COC)(C5)N6)nc(OC[C@@]56CCCN5C[C@H](F)C6)nc4c3F)c12 [Example 46, 5-ethynyl-6-fluoro-4-(8-fluoro-2-(((2R,7aS)-2-fluorotetrahydro-1H-pyrrolizin-7a(5H)-yl)methoxy)-4-((1R,5S)-1-(methoxymethyl)-3,8-diazabicyclo[3.2.1]octan-3-yl)pyrido[4,3-d]pyrimidin-7-yl)naphthalen-2-ol]	0.05 to 0.5	< 0.05			
C#Cc1c(F)ccc2cc(O)cc(-c3ncc4c(N5C[C@@H]6CC[C@](C=C)(C5)N6)nc(OC[C@@]56CCCN5C[C@H](F)C6)nc4c3F)c12 [Example 58, 5-ethynyl-6-fluoro-4-(8-fluoro-2-(((2R,7aS)-2-fluorotetrahydro-1H-pyrrolizin-7a(5H)-yl)methoxy)-4-((1S,5S)-1-vinyl-3,8-diazabicyclo[3.2.1]octan-3-yl)pyrido[4,3-d]pyrimidin-7-yl)naphthalen-2-ol]			0.047	0.127	
C#Cc1c(F)ccc2cc(O)cc(-c3ncc4c(N5CC6CCC(CCOC)(C5)N6)nc(OC[C@@]56CCCN5C[C@H](F)C6)nc4c3F)c12 (stereo partly drawn) [Example 9, 5-ethynyl-6-fluoro-4-(8-fluoro-2-(((2R,7aS)-2-fluorotetrahydro-1H-pyrrolizin-7a(5H)-yl)methoxy)-4-(1-(2-methoxyethyl)-3,8-diazabicyclo[3.2.1]octan-3-yl)pyrido[4,3-d]pyrimidin-7-yl) naphthalen-2-ol]	0.05 to 0.5	0.05 to 0.5			
[2H]C([2H])([2H])OC[C@@]12CC[C@@H](CN(c3nc(OC[C@@]45CCCN4C[C@H](F)C5)nc4c(F)c(-c5cc(O)cc6ccc(F)c(C#C)c56)nc(OCC)c34)C1)N2 [Example 52, 4-(5-ethoxy-8-fluoro-2-(((2R,7aS)-2-fluorotetrahydro-1H-pyrrolizin-7a(5H)-yl)methoxy)-4-((1R,5S)-1-((methoxy-d3)methyl)-3,8-diazabicyclo[3.2.1]octan-3-yl)pyrido[4,3-d]pyrimidin-7-yl)-5-ethynyl-6-fluoronaphthalen-2-ol]	0.05 to 0.5	< 0.05			
C#Cc1c(F)ccc2cc(O)cc(-c3ncc4c(N5C[C@H]6CC[C@@](/C=C/F)(C5)N6)nc(OC[C@@]56CCCN5C[C@H](F)C6)nc4c3F)c12 [Example 61, 5-ethynyl-6-fluoro-4-(8-fluoro-2-(((2R,7aS)-2-fluorotetrahydro-1H-pyrrolizin-7a(5H)-yl)methoxy)-4-((1R,5R)-1-((E)-2-fluorovinyl)-3,8-diazabicyclo[3.2.1]octan-3-yl)pyrido[4,3-d]pyrimidin-7-yl)naphthalen-2-ol]			0.876	0.816	
[2H]C([2H])([2H])OCC12CCC(CN(c3nc(OC[C@@]45CCCN4C[C@H](F)C5)nc4c(F)c(-c5cc(O)cc6ccc(F)c(C#C)c56)nc(C)c34)C1)N2 (stereo partly drawn) [Example 39, 5-ethynyl-6-fluoro-4-(8-fluoro-2-(((2R,7aS)-2-fluorotetrahydro-1H-pyrrolizin-7a(5H)-yl)methoxy)-4-(1-((methoxy-d3)methyl)-3,8-diazabicyclo[3.2.1]octan-3-yl)-5-methylpyrido[4,3-d]pyrimidin-7-yl)naphthalen-2-ol]	0.05 to 0.5	< 0.05			
C#Cc1c(F)ccc2cc(O)cc(-c3ncc4c(N5CC6CCC(/C=C\C)(C5)N6)nc(OC[C@@]56CCCN5C[C@H](F)C6)nc4c3F)c12 (stereo partly drawn) [Example 29, 5-ethynyl-6-fluoro-4-(8-fluoro-2-(((2R,7aS)-2-fluorotetrahydro-1H-pyrrolizin-7a(5H)-yl)methoxy)-4-(1-((Z)-prop-1-en-1-yl)-3,8-diazabicyclo[3.2.1]octan-3-yl)pyrido[4,3-d]pyrimidin-7-yl)naphthalen-2-ol]	0.05 to 0.5	< 0.05			
C#Cc1c(F)ccc2cc(O)cc(-c3ncc4c(N5CC6CCC(C(=O)O)(C5)N6)nc(OC[C@@]56CCCN5C[C@H](F)C6)nc4c3F)c12 (stereo partly drawn) [Example 22, 3-(7-(8-ethynyl-7-fluoro-3-hydroxynaphthalen-1-yl)-8-fluoro-2-(((2R,7aS)-2-fluorotetrahydro-1H-pyrrolizin-7a(5H)-yl)methoxy)pyrido[4,3-d]pyrimidin-4-yl)-3,8-diazabicyclo[3.2.1] octan-1-carboxylic acid]	0.05 to 0.5	> 0.5			
[2H]C([2H])([2H])OC[C@@]12CC[C@@]([2H])(CN(c3nc(OC[C@@]45CCCN4C[C@H](F)C5)nc4c(F)c(-c5cc(O)cc6ccc(F)c(C#C)c56)ncc34)C1)N2 [Example 48, 5-ethynyl-6-fluoro-4-(8-fluoro-2-(((2R,7aS)-2-fluorotetrahydro-1H-pyrrolizin-7a(5H)-yl)methoxy)-4-((1R,5S)-1-((methoxy-d3)methyl)-3,8-diazabicyclo[3.2.1]octan-3-yl-5-d)pyrido[4,3-d]pyrimidin-7-yl)naphthalen-2-ol]	> 0.5	< 0.05			
[2H]C([2H])([2H])C12CCC(CN(c3nc(OC[C@@]45CCCN4C[C@H](F)C5)nc4c(F)c(-c5cc(O)cc6ccc(F)c(C#C)c56)ncc34)C1)N2 (stereo partly drawn) [Example 7, 5-ethynyl-6-fluoro-4-(8-fluoro-2-(((2R,7aS)-2-fluorotetrahydro-1H-pyrrolizin-7a(5H)-yl)methoxy)-4-(1-(methyl-d3)-3,8-diazabicyclo[3.2.1]octan-3-yl)pyrido [4,3-d]pyrimidin-7-yl) naphthalen-2-ol]			0.0043	0.028	
C#Cc1c(F)ccc2cc(O)cc(-c3ncc4c(N5C[C@H]6CC[C@@](C)(C5)N6)nc(OC[C@@]56CCCN5C[C@H](F)C6)nc4c3F)c12 [Example 44]			0.019		0.0061
C#Cc1c(F)ccc2cc(O)cc(-c3ncc4c(N5CC6(C)CCC(C)(C5)N6)nc(OC[C@@]56CCCN5C[C@H](F)C6)nc4c3F)c12 [Example 20, 4-(4-(1,5-dimethyl-3,8-diazabicyclo[3.2.1]octan-3-yl)-8-fluoro-2-(((2R,7aS)-2-fluorotetrahydro-1H-pyrrolizin-7a(5H)-yl)methoxy)pyrido[4,3-d]pyrimidin-7-yl)-5-ethynyl-6-fluoronaphthalen-2-ol]	0.05 to 0.5	< 0.05			
C#Cc1c(F)ccc2cc(O)cc(-c3ncc4c(N5CC6CCC(COC(F)F)(C5)N6)nc(OC[C@@]56CCCN5C[C@H](F)C6)nc4c3F)c12 (stereo partly drawn) [Example 4, 4-(4-(1-((difluoromethoxy)methyl)-3,8-diazabicyclo[3.2.1]octan-3-yl)-8-fluoro-2-(((2R,7aS)-2-fluorotetrahydro-1H-pyrrolizin-7a(5H)-yl)methoxy)pyrido[4,3-d]pyrimidin-7-yl)-5-ethynyl-6-fluoronaphthalen-2-ol]	0.05 to 0.5	0.05 to 0.5			
C#Cc1c(F)ccc2cc(O)cc(-c3ncc4c(N5CC6CCC(CS(C)(=O)=O)(C5)N6)nc(OC[C@@]56CCCN5C[C@H](F)C6)nc4c3F)c12 (stereo partly drawn) [Example 11, 5-ethynyl-6-fluoro-4-(8-fluoro-2-(((2R,7aS)-2-fluorotetrahydro-1H-pyrrolizin-7a(5H)-yl)methoxy)-4-(1-((methanesulfonyl)methyl)-3,8-diazabicyclo[3.2.1]octan-3-yl)pyrido[4,3-d]pyrimidin-7-yl)naphthalen-2-ol]	> 0.5	> 0.5			
[2H]C([2H])([2H])OC[C@]12CC[C@]([2H])(CN(c3nc(OC[C@@]45CCCN4C[C@H](F)C5)nc4c(F)c(-c5cc(O)cc6ccc(F)c(C#C)c56)ncc34)C1)N2 [Example 47, 5-ethynyl-6-fluoro-4-(8-fluoro-2-(((2R,7aS)-2-fluorotetrahydro-1H-pyrrolizin-7a(5H)-yl)methoxy)-4-((1S,5R)-1-((methoxy-d3)methyl)-3,8-diazabicyclo[3.2.1]octan-3-yl-5-d)pyrido[4,3-d]pyrimidin-7-yl)naphthalen-2-ol]	0.05 to 0.5	0.05 to 0.5			
